Laboratory results from ChEMBL document CHEMBL5465560, “Selectivity Literature for EUbOPEN Chemogenomic Library” (2024).

Legend:
[1] = molecular target: T1, Serine/threonine-protein kinase BRSK2 (Homo sapiens) (UniProt Q8IWQ3); assay: Selectivity interaction (KinomeScan (DiscoverX)) EUB0001049a BRSK2; details: at 1 µM
T1 sequence (whole entry): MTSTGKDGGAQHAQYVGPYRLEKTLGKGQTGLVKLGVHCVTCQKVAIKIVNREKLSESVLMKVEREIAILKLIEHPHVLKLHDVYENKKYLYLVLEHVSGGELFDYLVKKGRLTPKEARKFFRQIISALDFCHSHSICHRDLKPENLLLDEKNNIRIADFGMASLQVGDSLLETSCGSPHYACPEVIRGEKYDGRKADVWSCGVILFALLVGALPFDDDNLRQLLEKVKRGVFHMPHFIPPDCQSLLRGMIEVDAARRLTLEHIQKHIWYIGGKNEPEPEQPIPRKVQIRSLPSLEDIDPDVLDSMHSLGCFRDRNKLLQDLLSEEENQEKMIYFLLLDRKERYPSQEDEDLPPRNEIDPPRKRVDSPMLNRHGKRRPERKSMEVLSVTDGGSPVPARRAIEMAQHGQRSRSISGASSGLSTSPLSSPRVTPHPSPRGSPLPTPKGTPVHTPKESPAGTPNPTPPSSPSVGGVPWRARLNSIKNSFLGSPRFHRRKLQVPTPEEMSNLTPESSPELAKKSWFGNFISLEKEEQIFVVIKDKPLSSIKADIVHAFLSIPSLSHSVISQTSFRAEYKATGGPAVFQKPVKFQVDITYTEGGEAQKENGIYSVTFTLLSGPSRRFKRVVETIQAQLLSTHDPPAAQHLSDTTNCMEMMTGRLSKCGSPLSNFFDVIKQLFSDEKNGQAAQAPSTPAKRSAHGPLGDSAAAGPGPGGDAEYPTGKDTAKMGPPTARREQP

[2] = molecular target: Ribosomal protein S6 kinase alpha-1 (Homo sapiens, UniProt Q15418); assay: Selectivity interaction (KinomeScan (DiscoverX)) EUB0001049a RPS6KA1; details: at 1 µM
Sequence of Ribosomal protein S6 kinase alpha-1 (Q15418 whole entry): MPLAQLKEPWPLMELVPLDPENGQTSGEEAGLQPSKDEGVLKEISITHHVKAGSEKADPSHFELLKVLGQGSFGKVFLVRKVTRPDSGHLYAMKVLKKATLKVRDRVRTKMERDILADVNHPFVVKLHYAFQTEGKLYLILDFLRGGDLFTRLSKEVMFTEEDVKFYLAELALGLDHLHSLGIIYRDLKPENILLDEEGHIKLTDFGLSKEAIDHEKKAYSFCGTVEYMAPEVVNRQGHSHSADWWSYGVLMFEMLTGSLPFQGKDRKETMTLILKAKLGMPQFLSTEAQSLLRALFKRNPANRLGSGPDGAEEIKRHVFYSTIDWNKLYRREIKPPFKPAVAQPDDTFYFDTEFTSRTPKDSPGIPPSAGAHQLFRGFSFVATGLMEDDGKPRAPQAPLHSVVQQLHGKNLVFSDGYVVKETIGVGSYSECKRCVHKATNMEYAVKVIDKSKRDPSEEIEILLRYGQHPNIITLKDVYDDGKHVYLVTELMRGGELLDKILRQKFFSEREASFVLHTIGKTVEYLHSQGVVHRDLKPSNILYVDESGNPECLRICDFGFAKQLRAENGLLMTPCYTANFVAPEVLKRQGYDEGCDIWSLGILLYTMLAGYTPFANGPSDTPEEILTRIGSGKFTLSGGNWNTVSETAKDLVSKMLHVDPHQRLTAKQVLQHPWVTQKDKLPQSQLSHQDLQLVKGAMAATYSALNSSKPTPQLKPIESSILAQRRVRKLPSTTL

[3] = molecular target: Macrophage colony-stimulating factor 1 receptor (Homo sapiens) (UniProt P07333); assay: Selectivity interaction (KinomeScan (DiscoverX)) EUB0001079a CSF1R; details: at 1 µM
Sequence of Macrophage colony-stimulating factor 1 receptor (Homo sapiens) (P07333 whole entry): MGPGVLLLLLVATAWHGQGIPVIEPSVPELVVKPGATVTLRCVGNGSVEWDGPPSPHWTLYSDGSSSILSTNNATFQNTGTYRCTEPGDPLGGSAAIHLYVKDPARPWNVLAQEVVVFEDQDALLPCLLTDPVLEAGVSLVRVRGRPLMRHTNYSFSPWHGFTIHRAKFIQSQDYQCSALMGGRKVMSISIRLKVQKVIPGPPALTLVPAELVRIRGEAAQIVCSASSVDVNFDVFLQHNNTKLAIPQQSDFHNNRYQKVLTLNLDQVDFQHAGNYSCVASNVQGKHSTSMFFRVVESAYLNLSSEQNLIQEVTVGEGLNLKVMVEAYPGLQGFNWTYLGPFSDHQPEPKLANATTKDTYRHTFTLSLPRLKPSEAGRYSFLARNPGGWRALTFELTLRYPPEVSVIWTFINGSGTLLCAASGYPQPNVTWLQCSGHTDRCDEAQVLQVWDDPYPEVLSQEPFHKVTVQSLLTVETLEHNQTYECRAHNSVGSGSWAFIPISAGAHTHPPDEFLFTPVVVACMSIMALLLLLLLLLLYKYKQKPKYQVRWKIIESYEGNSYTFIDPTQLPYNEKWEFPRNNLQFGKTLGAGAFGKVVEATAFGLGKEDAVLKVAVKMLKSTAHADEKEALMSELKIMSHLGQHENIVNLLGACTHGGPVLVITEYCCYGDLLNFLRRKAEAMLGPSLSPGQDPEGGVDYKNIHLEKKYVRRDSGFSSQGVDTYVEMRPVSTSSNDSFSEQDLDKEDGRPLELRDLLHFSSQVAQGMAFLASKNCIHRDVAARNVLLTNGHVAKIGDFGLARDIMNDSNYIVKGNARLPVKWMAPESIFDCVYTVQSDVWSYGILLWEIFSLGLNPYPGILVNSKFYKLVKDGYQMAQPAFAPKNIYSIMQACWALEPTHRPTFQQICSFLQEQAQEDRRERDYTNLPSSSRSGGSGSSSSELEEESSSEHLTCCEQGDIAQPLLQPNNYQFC

[4] = molecular target: T2, 3-phosphoinositide-dependent protein kinase 1 (Homo sapiens) (UniProt O15530); assay: Selectivity interaction (Ambit KINOMEscan and KiNATiv profiling in Jurkat cells) EUB0000090b PDPK1; format: cell-based; details: at 1 µM
T2 sequence (whole entry): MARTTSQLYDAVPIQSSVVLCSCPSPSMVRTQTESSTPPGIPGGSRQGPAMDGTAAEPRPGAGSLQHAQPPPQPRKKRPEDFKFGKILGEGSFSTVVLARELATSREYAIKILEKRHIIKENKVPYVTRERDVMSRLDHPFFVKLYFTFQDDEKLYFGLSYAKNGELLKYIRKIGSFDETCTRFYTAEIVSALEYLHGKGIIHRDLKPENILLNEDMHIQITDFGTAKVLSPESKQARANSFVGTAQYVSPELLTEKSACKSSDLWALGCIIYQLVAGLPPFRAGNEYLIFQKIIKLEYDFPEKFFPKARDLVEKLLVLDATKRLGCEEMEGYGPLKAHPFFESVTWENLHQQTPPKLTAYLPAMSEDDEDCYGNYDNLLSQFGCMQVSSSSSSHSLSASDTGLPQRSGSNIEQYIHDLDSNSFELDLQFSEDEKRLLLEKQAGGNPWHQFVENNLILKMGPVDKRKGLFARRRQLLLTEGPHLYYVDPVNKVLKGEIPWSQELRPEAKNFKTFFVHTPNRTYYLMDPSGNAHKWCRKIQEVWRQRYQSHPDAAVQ

[5] = molecular target: T3, Inhibitor of nuclear factor kappa-B kinase subunit beta (Homo sapiens) (UniProt O14920); assay: Selectivity interaction (KinomeScan (DiscoverX)) EUB0000618a IKBKB; details: at 10 µM
T3 sequence (whole entry): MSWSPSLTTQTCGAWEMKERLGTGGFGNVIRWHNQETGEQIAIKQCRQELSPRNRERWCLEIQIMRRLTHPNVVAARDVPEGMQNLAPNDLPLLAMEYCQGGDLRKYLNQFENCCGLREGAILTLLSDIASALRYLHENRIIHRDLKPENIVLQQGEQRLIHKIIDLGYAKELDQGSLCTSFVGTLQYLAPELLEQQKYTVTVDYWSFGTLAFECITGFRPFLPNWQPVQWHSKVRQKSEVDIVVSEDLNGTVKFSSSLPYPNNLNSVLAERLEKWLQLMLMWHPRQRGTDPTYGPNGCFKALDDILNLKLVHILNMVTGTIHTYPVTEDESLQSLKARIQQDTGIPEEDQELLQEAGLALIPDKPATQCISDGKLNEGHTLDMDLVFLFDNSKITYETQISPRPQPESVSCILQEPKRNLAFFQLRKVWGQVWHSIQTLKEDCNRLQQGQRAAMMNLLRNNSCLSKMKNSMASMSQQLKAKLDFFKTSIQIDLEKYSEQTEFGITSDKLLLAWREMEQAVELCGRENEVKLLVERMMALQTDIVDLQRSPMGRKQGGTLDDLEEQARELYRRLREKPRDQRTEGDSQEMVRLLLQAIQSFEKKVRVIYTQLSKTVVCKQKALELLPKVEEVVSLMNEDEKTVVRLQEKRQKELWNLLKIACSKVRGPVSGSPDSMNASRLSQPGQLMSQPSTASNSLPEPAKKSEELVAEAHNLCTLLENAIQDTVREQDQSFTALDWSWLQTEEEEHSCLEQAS

[6] = molecular target: Phosphatidylinositol 4-kinase beta (Homo sapiens, UniProt Q9UBF8); assay: Selectivity interaction (KinomeScan (DiscoverX)) EUB0001619a PI4KB; details: at 1 µM
Sequence of Phosphatidylinositol 4-kinase beta (Q9UBF8 2-816 limits assumed): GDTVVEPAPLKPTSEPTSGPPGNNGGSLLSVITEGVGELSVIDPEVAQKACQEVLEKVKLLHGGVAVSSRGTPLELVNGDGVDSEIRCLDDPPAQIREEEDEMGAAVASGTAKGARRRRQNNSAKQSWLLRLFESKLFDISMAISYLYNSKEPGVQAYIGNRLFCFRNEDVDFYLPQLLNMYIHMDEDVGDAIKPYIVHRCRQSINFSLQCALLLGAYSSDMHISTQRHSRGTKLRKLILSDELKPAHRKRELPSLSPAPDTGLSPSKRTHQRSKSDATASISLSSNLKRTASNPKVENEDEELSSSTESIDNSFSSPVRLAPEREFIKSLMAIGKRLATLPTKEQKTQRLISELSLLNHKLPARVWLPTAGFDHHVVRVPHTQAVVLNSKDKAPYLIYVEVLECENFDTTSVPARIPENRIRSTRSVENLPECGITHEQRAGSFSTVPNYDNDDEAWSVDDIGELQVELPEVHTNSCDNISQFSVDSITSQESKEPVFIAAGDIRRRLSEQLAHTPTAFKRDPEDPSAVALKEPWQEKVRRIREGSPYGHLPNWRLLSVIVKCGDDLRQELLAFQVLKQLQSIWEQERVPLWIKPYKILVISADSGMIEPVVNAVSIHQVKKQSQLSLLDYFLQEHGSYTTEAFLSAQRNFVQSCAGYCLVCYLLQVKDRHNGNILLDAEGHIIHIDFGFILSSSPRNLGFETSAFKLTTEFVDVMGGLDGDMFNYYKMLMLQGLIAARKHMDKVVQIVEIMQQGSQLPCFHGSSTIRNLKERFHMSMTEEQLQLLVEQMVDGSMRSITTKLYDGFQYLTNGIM

[7] = molecular target: Tyrosine-protein kinase SYK (Homo sapiens, UniProt P43405); assay: Selectivity interaction (ActivX KiNativ screen (ex vivo kinase selectivity in human PBMCs)) EUB0001619a SYK; format: cell-based; details: PBMC, at 1 µM

**Q.** With `COc1cc(Nc2nc(C)cc(-c3cnn4nc(OC)ccc34)n2)cc(C(F)(F)F)c1` as the compound, how does the % of control [1] read?
**A.** 94%

**Q.** What about the % of control [2] of the same compound?
**A.** 88%

**Q.** With `Nc1cnc(N2CCc3cc(S(=O)(=O)Nc4c(F)cc(Cl)cc4F)cc(N4CCCC4=O)c32)nc1` [TP-020n] as the compound, how does the % of control [3] read?
**A.** 100%

**Q.** With `CN(C)C/C=C/C(=O)Nc1ccc(C(=O)N2CCCC(Nc3ncc(Cl)c(-c4c[nH]c5ccccc45)n3)C2)cc1` (configuration not stated) as the compound, how does the % of control [4] read?
**A.** 99%

**Q.** Which % of control [5] does the source give for `O[C@H]1CC[C@H](Nc2ncc3nc(Nc4c(F)cc(F)cc4F)n([C@H]4CCOC4)c3n2)CC1` here?
**A.** 100%

**Q.** What does the source list for `N#Cc1cccc(-c2c[nH]c3ncnc(N4CCOCC4)c23)c1`?
**A.** % of control [6]: 71%; % of inhibition [7]: -12%
